{
  "source": "patent US9592214B2",
  "about": "“Compounds for the treatment of autism in a baby child” (INSERM (INSTITUT NATIONAL DE LA SANTE ET DE LA RECHERCHE …, priority 2010, dated 2017)",
  "key": {"[1]": {"tested_on": "hippocampal CA3 pyramidal cells", "assay": "DFGABA in hippocampal CA3 pyramidal cells of offspring after in utero VPA / maternal bumetanide pretreatment", "format": "in vivo, rat", "conditions": "for DFGABA (mV), mean ± S.E.: P15 VPA rats, maternal bumetanide pretreatment (2-2.5 mg/kg in drinking water, 1 day before delivery)", "experimental": "(§1) Time-mated female Wistar rats at gestational day E7-8 were housed under standard laboratory conditions. The in utero valproic acid (VPA) rodent model of autism spectrum disorders has been previously described in detail. Briefly, the sodium salt of VPA (Sigma-Aldrich) was dissolved in physiological saline solution to a concentration of 300 mg/ml. Pregnant rats received a single intra-peritoneal dose of 600 mg/kg on gestational day 12 (E12). The control dams received a single similar volume injection of saline at the same gestational time-point. Dams were housed individually and allowed to raise their own litters. The offspring were used for experiments on embryonic day 20 (E20) and postnatal (P) days 0, 2, 4, 7, 15 and 30 (after being weaned at P23). Experiments were carried out on offspring of either sex.\nExperiments were performed on fetuses and neonatal rat pups. We removed E20 rats from deeply anesthetized dams [subcutaneous injection of a mixture of xylazine (Rompun 2%; used at 0.05%) and ketamine (Imalgene 1000 used at 50 g/l)]. Hippocampal slices ([…] thick) were prepared using a Microm tissue slicer (International GmbH, Germany) as described previously (Tyzio et al. 2006 Science 314, 1788; Tyzio et al, 2008, Eur J. Neurosci. 27(10):2515-28). Slices were kept in oxygenated (95% O2/5% CO2) artificial cerebrospinal fluid (ACSF) of the following composition (in mM): NaCl 126, KCl 3.5, CaCl2 2.0, MgCl2 1.3, NaHCO3 25, NaH2PO4 1.2 and glucose 11 (pH 7.4) at room temperature (20-22° C.) at least 1 hour before use.\nFor recordings, slices were placed into a conventional fully submerged chamber superfused with ACSF at a rate of 2-3 ml/min at room temperature. Patch clamp recordings from visually identified CA3 pyramidal cells in cell-attached configuration were performed using EPC-10 amplifier (HEKA Elektronik Dr. Schulze GmbH, Lambrecht/Pfalz, Germany). Patch pipette solution for recordings of single GABAA channels contained (in mM): NaCl 120, KCl 5, TEA-Cl 20, 4-aminopyridine 5, CaCl2 0.1, MgCl2 10, glucose 10, Hepes-NaOH 10 buffered to pH 7.2-7.3 and GABA 2 μM. Analysis of currents through single channels and current-voltage relationships were performed using Clampfit 9.2 (Axon Instruments, Union City, Calif.). Recordings were digitized (10 kHz) online with Digidata-1200 interface card (Axon Instruments, Union City, Calif.) and analyzed offline with Axon package, MiniAnalysis (S (Synaptsoft, Decatur, Ga.), and Origin (Microcal Software, Northampton, Mass.).\n(§2) Bumetanide (10 μM), Oxytocin (1 μM) and Isoguvacine (2 μM) were directly added to the perfusion solutions. Bumetanide pretreatment (2-2.5 mg/kg) was given to the dams in drinking water. All drugs used were purchased from Sigma. SSR126768A (Sanofi-Synthelabo) pretreatment (1 mg/kg) was given to the dams in drinking water.\nIf the polarity of GABA actions at delivery produces long terms effects in offsprings, then restoring low [Cl^−]i and inhibitory GABA at delivery might restore physiological parameters in juvenile rodents. To test this hypothesis, pregnant females were treated orally 1 day before delivery with bumetanide (2-2.5 mg/kg in drinking water) and juvenile offspring neurons recorded at P15. […] In VPA rats, GABAergic inputs are excitatory and contribute to hyperexcitability of the network. Bumetanide decreases [Cl^−]i and consequently reduces contribution of excitatory GABAergic inputs in the overall network activity."}, "[2]": {"tested_on": "Valproate rat model of autism", "assay": "Isolation-induced ultrasonic vocalizations", "format": "in vivo", "experimental": "as §1\nTo induce ultrasonic vocalizations, […], and were placed into an isolation box (23×28×18 cm) located inside a sound attenuating isolation cubicle (54×57×41 cm; Coulbourn Instruments, Allentown, Pa., USA), and evaluated for ultrasonic vocalizations during a three minutes test. An ultrasound microphone (Avisoft UltraSoundGate Condenser microphone capsule CM16/CMPA, Avisoft Bioacoustics, Berlin, Germany), placed in the roof of the box, was sensitive to frequencies of 10 to 250 kHz. Vocalizations were recorded using the Avisoft Recorder software (version 4.2) with a sampling rate of 250 kHz in 16 bit format. For acoustical analysis, recordings were transferred to SASLab Pro (version 5.2; Avisoft Bioacoustics) and a fast Fourier transformation was conducted (512 FFT-length, 100% frame, Hamming window and 75% time window overlap). The accuracy of call detection was verified manually by an educated user. A Pearson correlation coefficient was computed to assess the relationship between Automatic and Manual analysis. There was 0.99 correlation between the two variables.\nas §2"}, "[3]": {"tested_on": "Valproate rat model of autism", "assay": "In vivo EEG recordings in the CA3 area of hippocampus of head-restrained rats", "conditions": "for Integral power spectra of EEG recordings, mean ± S.E.M.: VPA rats with maternal BUM pretreatment, P13-15", "experimental": "as §1\nHead-fixed rat pups of age P13-P15 were prepared for extracellular recording under isoflurane anesthesia. The skin and periosteum were removed from the skull, which was then covered by glue and dental cement except for a 4-9 mm^2 window above the somatosensory cortex from one or two hemispheres for the silicon probe penetration (4.0-4.2 mm lateral to midline and 2.2-2.5 mm caudal to bregma) and for the reference electrode (1.0-1.5 mm lateral to midline and 6.0-6.5 mm caudal to bregma). The rat was positioned in the stereotaxic apparatus. A 1 mm-diameter burr hole was drilled in the skull; the dura was cut and removed. Recordings were made 1 h after recovery from anesthesia. Pups were kept restrained for <3 h and were closely monitored for signs of stress and to ensure that they spent a normal proportion of their time sleeping. The outside temperature was maintained between 35 and 36° C. The animals were kept in low-light conditions throughout all experiments. 16-site linear silicone probe (NeuroNexus Technologies) coupled to a direct-current amplifier (Molecular Devices) and dunked previously in fluorescent dye (DiI, Invitrogen) was slowly penetrated via the hole at […] depth under the angle 30° in the coronal plane. EEGs were recorded during 2 hours, using a 16-channel amplifier (A-M System, Inc.) and digitized at 5 kHz using Axoscope software (Molecular Deviced). Recordings were amplified and high-pass filtered at 0.3 Hz in Axoscope. Silicone probe location was verified postmortem via dye localization. To quantify the frequency band integral power the traces were band-pass filtered at frequency bands […]) θ-(4-7 Hz), α-(7-12 Hz), β-(12-25 Hz), Low γ-(25-60 Hz), High γ-(60-120 Hz) and Fast oscillations-(120-500 Hz)). Fast Fourier Transform (FFT) was applied with Clampfit (Molecular Devices). Integrals of FFT power spectra were taken and averaged with OriginPro (OriginLab Corporation).\nas §2"}, "[4]": {"conditions": "P4 VPA rats + maternal BUM pretreatment"}, "[5]": {"conditions": "P4 control rats + maternal BUM pretreatment"}},
  "data": [
    {"smiles": "CCCCNc1cc(C(=O)O)cc(S(N)(=O)=O)c1Oc1ccccc1", "note": "[bumetanide]", "values": [
      {"measurement": "DFGABA values in offsprings", "setting": "[1]; P15 VPA offspring, maternal bumetanide pretreatment, result in words", "value": "restored control DFGABA values"},
      {"measurement": "DFGABA (mV), mean ± S.E.", "setting": "[1]", "value": "0.4±1.1", "unit": "mV"},
      {"measurement": "DFGABA (mV), mean ± S.E.", "setting": "[1]; listed as BUM", "value": "0.4 ± 1.1 (n = 58) mV"},
      {"measurement": "behavioral deficit (smaller number and shorter total duration of calls)", "setting": "[2]; P4 VPA offspring, maternal bumetanide pretreatment, result in words", "value": "rescued this behavioral deficit"},
      {"measurement": "Number of calls, isolation-induced USVs mean ± S.E.M", "setting": "[2]; [4]", "value": "56 ± 25 (n = 20)"},
      {"measurement": "Total duration of calls, isolation-induced USVs mean ± S.E.M", "setting": "[2]; [4]", "value": "4 ± 2 (n = 20)"},
      {"measurement": "Number of calls, isolation-induced USVs mean ± S.E.M", "setting": "[2]; [5]", "value": "62.6 ± 27.4 (n = 18)"},
      {"measurement": "Total duration of calls, isolation-induced USVs mean ± S.E.M", "setting": "[2]; [5]", "value": "4.6 ± 2.3 (n = 18)"},
      {"measurement": "EEG oscillatory hyperactivity and power of network oscillations", "setting": "[3]; P13-P15 VPA offspring, maternal bumetanide pretreatment, result in words", "value": "abolished hyperactivity and restored physiological values"},
      {"measurement": "Integral power spectra of EEG recordings, mean ± S.E.M.", "setting": "[3]; frequency band 0.5-4 Hz", "value": "88.53 ± 27.57"},
      {"measurement": "Integral power spectra of EEG recordings, mean ± S.E.M.", "setting": "[3]; frequency band 4-7 Hz", "value": "15.40 ± 4.25"},
      {"measurement": "Integral power spectra of EEG recordings, mean ± S.E.M.", "setting": "[3]; frequency band 7-12 Hz", "value": "7.09 ± 1.56"},
      {"measurement": "Integral power spectra of EEG recordings, mean ± S.E.M.", "setting": "[3]; frequency band 12-25 Hz", "value": "6.35 ± 1.52"},
      {"measurement": "Integral power spectra of EEG recordings, mean ± S.E.M.", "setting": "[3]; frequency band 25-60 Hz", "value": "0.97 ± 0.20"},
      {"measurement": "Integral power spectra of EEG recordings, mean ± S.E.M.", "setting": "[3]; frequency band 60-120 Hz", "value": "0.32 ± 0.06"},
      {"measurement": "Integral power spectra of EEG recordings, mean ± S.E.M.", "setting": "[3]; frequency band 120-500 Hz", "value": "1.18 ± 0.19"}
    ]}
  ]
}
